Patent US9107852B2, “Uses of agonists of delta opioid receptor in cosmetic and dermocosmetic field” (Induchem Holding AG, priority 2012, dated 2015)
Ends that are not written are not given here.

What was measured:
[1] = test system: reconstructed human epidermis (RHE); test: Gene expression (RT-qPCR array) in inflammatory reconstructed human epidermis; assay type: cell-based; conditions: with cytokines and peptide 0.3 PPM; versus non stimulated RHE
Method: Transcriptional effects of a peptide (YPLDLF, SEQ ID No 1) on gene expression were researched on a reconstructed human epidermis (RHE) model under inflammatory conditions. The inflammation of the RHE was induced using a mix of cytokines (IL-17+OSM+TNF-α). The effects on gene expression were evaluated using RT-qPCR technology. Extracted mRNA was analyzed on a customized PCR array designed by the study sponsor and containing 64 target genes (including 2 housekeeping genes) selected for their role in keratinocyte differentiation, or their involvement in cell junctions and lipid synthesis, or their relation to opioid receptor delta (DOR).
Reconstructed human epidermis (RHE) of 11 days old was prepared according to a derived method described by Poumay et al. (2004). These RHE were cultivated at 37° C. and 5% of CO2 in a specific maintenance medium.
The RHE were cultured in assay medium containing or not (controls) the test compounds or the reference […] inhibitor I at 10 μM) and pre-incubated for 24 hours. Epidermises were then stimulated or not (non-stimulated control) with a cytokine mix (IL-17+OSM+TNF-α) at 3 ng/ml and the epidermises were incubated for 24 hours. All experimental conditions were performed in n=2.
At the end of incubation, the supernatants were collected and the RHE were washed in phosphate buffered saline solution (PBS) and immediately dry-frozen at −80° C.
The expression of markers was analyzed using RT-qPCR method on mRNA extracted from RHE for each treatment (before RNA extraction the replicates were pooled).
Analysis of gene expression was performed in n=2 using a customized PCR array dedicated to research and adapted to ‘screening’ format.
Total RNA was extracted from each sample using TriPure Isolation Reagent® according to the supplier's instructions. The amount and quality of RNA were evaluated using a lab-on-a-chip Bioanalyzer (Agilent technologies). The RNA quality controls are presented in appendix. Potential contaminant traces of genomic DNA were removed using the DNAfree system (Ambion). The reverse-transcription of mRNA was conducted in presence of oligo(dT) and Superscript II reverse-transcriptase. Quantification of cDNA was performed using Nanovue (GE Healthcare) and adjustment of cDNA at 10 ng/μl.
The PCRs (Polymerase Chain Reactions) were performed using the <<LightCycler®>> system (Roche Molecular System Inc.) according to supplier's instructions. This system allows rapid and powerful PCRs, after determining analysis conditions of the test primers.
The reaction mix (10 μl final) was added as follows: • 2.5 μl of cDNA at 10 ng/μl, • primers forward and reverse, • reagent mix containing taq DNA polymerase, SYBR Green I and MgCl2. Data Management of Quantitative PCR
The incorporation of fluorescence in amplified DNA was continuously measured during the PCR cycles. […] The value selected for RE calculations is the “output point” (Ct) of the fluorescence curve. For a considered marker, the highest is the cycle number; the lowest is the mRNA quantity. The RE value was expressed in arbitrary units (AU) according to the formula: (½^number of cycles)×10^6.

[2] = test system: human skin explants; test: Pro-pigmentation on human skin explants; assay type: cell-based; conditions: within 6 days, 0.3 and 3 PPM
Method: This study aims to explore the pro pigmenting activity of an ingredient (peptide YPLDLF, SEQ ID No 1) on human skin explants maintained in survival.
The activity of the product was evaluated by: • histological expertise of general morphology of the skin after Masson trichrome staining, • a visualization of melanin by a silver impregnation. • Immunostaining of Melan-A
Skin explants with a diameter of 10 mm were prepared from plastic surgery skin sample from a person. The explants were placed in survival in a specific growth medium at 37° C. in a humid atmosphere enriched with 5% CO2.
The peptide solutions (at 0.3 PPM or 3 PPM) were applied topically for 2 hours every day using a filter paper discs presoaked in 30 μl of each solution.
At D0, a T0 lot of the explants were removed and cut in half. One half was fixed in buffered formalin and the other half was frozen at −80° C. […]
The melanin was visualized by silver impregnation according to the technique of Masson Fontana variant. Labeled melanin has been evaluated by microscopic examination.
The expression of melanin in the basal layers, was quantified by image analysis using the software Cell-D.
The cell nuclei were colored with a propidium iodide. Labeled Melan-A has been evaluated by microscopic examination and counting of melanocytes Melan-A positive and the results expressed per centimeter of epidermis.

YPLDLF [YPLDLF] was tested, and the “Relative expression of ACSS2” value [1] was 113 % Control (Mean HK), the “Relative expression of ADRB2” value [1] was 259 % Control (Mean HK) and the “Relative expression of BIRC5” value [1] was 88 % Control (Mean HK). The “Relative expression of CALML5 (Calmodulin-like 5)” value [1] was 72 % Control (Mean HK), the “Relative expression of CASP3” value [1] was 104 % Control (Mean HK) and the “Relative expression of CDH1 (E-cadherin)” value [1] was 126 % Control (Mean HK). For the same substance, the “Relative expression of CDSN (Corneodesmosin)” value [1] was 161 % Control (Mean HK), the “Relative expression of CLDN1 (Claudin 1)” value [1] was 128 % Control (Mean HK) and the “Relative expression of CLDN2 (Claudin 2)” value [1] was 121 % Control (Mean HK). The “Relative expression of CREB1” value [1] was 109 % Control (Mean HK), the “Relative expression of CRNN (Cornulin)” value [1] was 71 % Control (Mean HK) and the “Relative expression of CTNNA1” value [1] was 117 % Control (Mean HK). For the same substance, the “Relative expression of CTNNB1” value [1] was 134 % Control (Mean HK), the “Relative expression of DSG1 (Desmoglein 1)” value [1] was 98 % Control (Mean HK) and the “Relative expression of DSP (Desmoplakin)” value [1] was 107 % Control (Mean HK). The “Relative expression of DST (Dystonin)” value [1] was 93 % Control (Mean HK), the “Relative expression of EGFR” value [1] was 141 % Control (Mean HK) and the “Relative expression of EPPK1 (Epiplakin 1)” value [1] was 82 % Control (Mean HK). For the same substance, the “Relative expression of EVPL (Envoplakin)” value [1] was 132 % Control (Mean HK), the “Relative expression of F11R” value [1] was 115 % Control (Mean HK) and the “Relative expression of FLG (Filaggrin)” value [1] was 117 % Control (Mean HK). The “Relative expression of GAPDH” value [1] was 116 % Control (Mean HK), the “Relative expression of GBA” value [1] was 110 % Control (Mean HK) and the “Relative expression of GJA1” value [1] was 111 % Control (Mean HK). For the same substance, the “Relative expression of GJA5” value [1] was 90 % Control (Mean HK), the “Relative expression of GJB2” value [1] was 131 % Control (Mean HK) and the “Relative expression of GJB3” value [1] was 111 % Control (Mean HK). For the same substance, the “Relative expression of GJB4” value [1] was 77 % Control (Mean HK), the “Relative expression of GJB5” value [1] was 122 % Control (Mean HK) and the “Relative expression of GJB6” value [1] was 203 % Control (Mean HK). For the same substance, the “Relative expression of GJC1” value [1] was 126 % Control (Mean HK), the “Relative expression of GJD3” value [1] was 487 % Control (Mean HK) and the “Relative expression of GNAS” value [1] was 130 % Control (Mean HK). For the same substance, the “Relative expression of ITGA2” value [1] was 108 % Control (Mean HK), the “Relative expression of ITGAV” value [1] was 103 % Control (Mean HK) and the “Relative expression of IVL (Involucrin)” value [1] was 119 % Control (Mean HK). For the same substance, the “Relative expression of KRT1 (Keratin 1)” value [1] was 140 % Control (Mean HK), the “Relative expression of KRT10 (Keratin 10)” value [1] was 145 % Control (Mean HK) and the “Relative expression of KRT19 (Keratin 19)” value [1] was 134 % Control (Mean HK). For the same substance, the “Relative expression of LOR (Loricrin)” value [1] was 121 % Control (Mean HK), the “Relative expression of MAPK1” value [1] was 108 % Control (Mean HK) and the “Relative expression of MAPK14” value [1] was 109 % Control (Mean HK). The “Relative expression of OCLN (Occludin)” value [1] was 131 % Control (Mean HK), the “Relative expression of ODC1” value [1] was 110 % Control (Mean HK) and the “Relative expression of OPRD1 (Opioid receptor, delta 1)” value [1] was 101 % Control (Mean HK). For the same substance, the “Relative expression of PADI1” value [1] was 105 % Control (Mean HK), the “Relative expression of PANX1 (Pannexin 1)” value [1] was 133 % Control (Mean HK) and the “Relative expression of PTGS2” value [1] was 119 % Control (Mean HK). The “Relative expression of PVRL1” value [1] was 131 % Control (Mean HK), the “Relative expression of RPS28 (Ribosomal protein S28)” value [1] was 91 % Control (Mean HK) and the “Relative expression of SFN (Stratifin)” value [1] was 143 % Control (Mean HK). The “Relative expression of SLC1A3” value [1] was 100 % Control (Mean HK), the “Relative expression of SMPD1” value [1] was 87 % Control (Mean HK) and the “Relative expression of SPRR1A” value [1] was 142 % Control (Mean HK). The “Relative expression of SPRR1B” value [1] was 127 % Control (Mean HK), the “Relative expression of SPRR2A” value [1] was 111 % Control (Mean HK) and the “Relative expression of SPTLC1” value [1] was 120 % Control (Mean HK). For the same substance, the “Relative expression of STAT3” value [1] was 120 % Control (Mean HK), the “Relative expression of SULT2B1” value [1] was 173 % Control (Mean HK) and the “Relative expression of TGM1 (Transglutaminase 1)” value [1] was 108 % Control (Mean HK). For the same substance, the “Relative expression of TJAP1” value [1] was 81 % Control (Mean HK), the “Relative expression of TJP1” value [1] was 129 % Control (Mean HK) and the “Relative expression of UGCG” value [1] was 117 % Control (Mean HK). For the same substance, the “production of pigment (melanin) in human skin” value [2] was “activate in a dose dependent manner”.
